Results: US11602534B2, “Pyrimidine derivative kinase inhibitors” (HEFEI INSTITUTES OF PHYSICAL SCIENCE, CHINESE ACADEMY OF …, priority 2017, dated 2023)

Assays:
BaF3 = test: Proliferation of BaF3 cells, CCK8 cell viability assay; type: cell-based; details: Mus musculus, 72 hours
How it was run: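 GI50 (μM) from CCK8 read-out, which measures reductive dehydrogenase activity in living cells. Cells: parental mouse BaF3, or BaF3 stably expressing TEL-fused human cKIT, PDGFRα or PDGFRβ kinase domains and grown without IL-3, making them kinase-dependent.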

P210-BaF3 = test: Proliferation of P210-BaF3 cells, CCK8 cell viability assay; type: cell-based; details: Mus musculus, 72 hours, stably expressing BCR-ABL mutant activated kinase
How it was run: (§1)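 Murine BaF3 cells made IL-3-independent by retroviral transduction of human kinase domains fused to N-terminal TEL or TPR fragments; parental BaF3 included. Living cells quantified by CCK8 (dehydrogenase activity) read-out, giving GI50 in μM.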

P210/T315I-BaF3 = test: Proliferation of P210/T315I-BaF3 cells, CCK8 cell viability assay; type: cell-based; details: Mus musculus, 72 hours, stably expressing BCR-ABL/T315I
How it was run: as §1

Tel-cKit-BaF3 = test: Proliferation of Tel-cKit-BaF3 cells, CCK8 cell viability assay; type: cell-based, mouse; details: Mus musculus; 72 hours, CCK8; stably expressing cKIT kinase
How it was run: (§2)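 Growth inhibition is expressed as GI50 in μM, with living-cell number estimated by reductive dehydrogenase activity in a CCK8 assay. The engineered BaF3 lines express TEL-fused human cKIT, PDGFRα or PDGFRβ and proliferate without IL-3 only through that kinase.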

Tel-cKit/T670I-BaF3 = test: Proliferation of Tel-cKit/T670I-BaF3 cells, CCK8 cell viability assay; type: cell-based; details: Mus musculus, 72 hours, stably expressing cKIT/T670I
How it was run: as §2

Tel-FLT3-BaF3 = test: Proliferation of Tel-FLT3-BaF3 cells, CCK8 cell viability assay; type: cell-based; details: Mus musculus, 72 hours, stably expressing FLT3 kinase
How it was run: as §1

FLT3-ITD-BaF3 = test: Proliferation of FLT3-ITD-BaF3 cells, CCK8 cell viability assay; type: cell-based; details: Mus musculus, 72 hours, stably expressing FLT3/ITD
How it was run: as §1

Tel-RET-BaF3 = test: Proliferation of Tel-RET-BaF3 cells, CCK8 cell viability assay; type: cell-based; details: Mus musculus, 72 hours, stably expressing RET kinase
Description: In this example the following cells were used: […] (purchased from ATCC), mouse P210-BaF3 (stably expressing BCR-ABL mutant activated kinase), mouse P210/T315I-BaF3 (stably expressing BCR-ABL/T315I mutant activated kinase), mouse FLT3-ITD-BaF3 (stably expressing FLT3/ITD mutant activated kinase), mouse TEL-FLT3-BaF3 (stably expressing FLT3 kinase), mouse TEL-cKIT-BaF3 (stably expressing cKIT kinase), mouse BaF3-tel/T670I-cKit (stably expressing cKIT/T670I mutant activated kinase), mouse Tel-VEGFR2-BaF3 (stably expressing VEGFR2 kinase), mouse Tel-PDGFRα-BaF3 (stably expressing PDGFRα kinase), mouse Tel-PDGFRβ-BaF3 (stably expressing PDGFRβ kinase), mouse Tel-RET-BaF3 (stably expressing RET kinase). The above cell lines were all constructed by our laboratory according to the following method: the kinase region sequences of human P210, P210/T315I, FLT3/ITD, FLT3, cKIT, cKIT/T670I, VEGFR2, PDGFRα, PDGFRβ, RET were respectively amplified by PCR, and inserted into MSCV-Puro vectors having N-terminal TEL or TPR fragments (Clontech). The vectors were stably transfected into mouse BaF3 cells by means of retrovirus, and the growth factor IL-3 were removed, eventually obtaining cell lines that depend on transferred protein P210, P210/T315I, FLT3/ITD, FLT3, cKIT, cKIT/T670I, VEGFR2, PDGFRα, PDGFRβ, or RET.
GI50 (unit: μM) was calculated by quantifying the number of living cells based on quantitative measurement of reductive dehydrogenase in living cells with CCK8 cell viability assay kit (Bestbio, China).

TEL-PDGFRα-BaF3 = test: Proliferation of TEL-PDGFRα-BaF3 cells, CCK8 cell viability assay; type: cell-based; details: Mus musculus, 72 hours, stably expressing PDGFRα kinase
How it was run: as §2

TEL-PDGFRβ-BaF3 = test: Proliferation of TEL-PDGFRβ-BaF3 cells, CCK8 cell viability assay; type: cell-based; details: Mus musculus, 72 hours, stably expressing PDGFRβ kinase
How it was run: as §2

TEL-VEGFR2-BaF3 = test: Proliferation of TEL-VEGFR2-BaF3 cells, CCK8 cell viability assay; type: cell-based; details: Mus musculus, 72 hours, stably expressing VEGFR2 kinase
How it was run: as §1

| GI50 (BaF3) [µM] | GI50 (P210-BaF3) [µM] | GI50 (P210/T315I-BaF3) [µM] | GI50 (Tel-cKit-BaF3) [µM] | GI50 (Tel-cKit/T670I-BaF3) [µM] | GI50 (Tel-FLT3-BaF3) [µM] | GI50 (FLT3-ITD-BaF3) [µM] | GI50 (Tel-RET-BaF3) [µM] | GI50 (TEL-PDGFRα-BaF3) [µM] | GI50 (TEL-PDGFRβ-BaF3) [µM] | GI50 (TEL-VEGFR2-BaF3) [µM] | SMILES |
| --- | --- | --- | --- | --- | --- | --- | --- | --- | --- | --- | --- |
| > 10 | 6.74 | > 10 | 0.524 | > 10 | 0.017 | 0.004 | > 10 | 0.001 | 0.003 | 0.139 | CC(=O)Nc1cc(Oc2ccc(NC(=O)Cc3ccc(Cl)cc3Cl)cc2)ncn1 [Example 8, N-[4-(6-acetylamino-pyrimidin-4-yloxy)-phenyl]-2-(2,4-dichloro-phenyl)-acetamide] |
| > 10 | > 10 | > 10 | 4.6 | 6.3 | 0.65 | 0.14 | 7.9 | 0.038 | 0.061 | 3.9 | CCCCC(=O)Nc1cc(Oc2ccc(NC(=O)Cc3ccccc3C(F)(F)F)cc2)ncn1 [Example 55, N-(6-{4-[2-(2-trifluoromethyl-phenyl)-acetylamino]-phenoxy}-pyrimidin-4-yl)-valeramide] |
| > 10 | > 10 | > 10 | 0.855 | 9.22 | 0.814 | 0.206 | > 10 | 0.005 | 0.007 | 2.58 | CC(C)C(=O)Nc1cc(Oc2ccc(NC(=O)Cc3cccc(C(F)(F)F)c3)cc2)ncn1 [Example 50, N-(6-{4-[2-(3-trifluoromethyl-phenyl)-acetylamino]-phenoxy}-pyrimidin-4-yl)-isobutyramide] |
| > 10 | > 10 | > 10 | 3.21 | > 10 | 0.236 | 0.067 | > 10 | 0.035 | 0.07 | 0.518 | CC(=O)Nc1cc(Oc2ccc(NC(=O)Cc3cc(C)ccc3C)cc2)ncn1 [Example 7, N-[4-(6-acetylamino-pyrimidin-4-yloxy)-phenyl]-2-(2,5-dimethyl-phenyl)-acetamide] |
| > 10 | > 10 | > 10 | > 10 | > 10 | 2.58 | 1.97 | > 10 | 0.059 | 0.145 | 6.11 | CC(C)C(=O)Nc1cc(Oc2ccc(NC(=O)Cc3ccccc3C(F)(F)F)cc2)ncn1 [Example 49, N-(6-{4-[2-(2-trifluoromethyl-phenyl)-acetylamino]-phenoxy}-pyrimidin-4-yl)-isobutyramide] |
| > 10 | > 10 | > 10 | 8.35 | > 10 | 0.546 | 0.142 | > 10 | 0.028 | 0.089 | 3.17 | CCC(=O)Nc1cc(Oc2ccc(NC(=O)Cc3ccccc3C(F)(F)F)cc2)ncn1 [Example 47, N-(6-{4-[2-(2-trifluoromethyl-phenyl)-acetylamino]-phenoxy}-pyrimidin-4-yl)-propanamide] |

Further lines, the compound ahead of its results:

| SMILES | GI50 (BaF3) [µM] | GI50 (P210-BaF3) [µM] | GI50 (P210/T315I-BaF3) [µM] | GI50 (Tel-cKit-BaF3) [µM] | GI50 (Tel-cKit/T670I-BaF3) [µM] | GI50 (Tel-FLT3-BaF3) [µM] | GI50 (FLT3-ITD-BaF3) [µM] | GI50 (Tel-RET-BaF3) [µM] | GI50 (TEL-PDGFRα-BaF3) [µM] | GI50 (TEL-PDGFRβ-BaF3) [µM] | GI50 (TEL-VEGFR2-BaF3) [µM] |
| --- | --- | --- | --- | --- | --- | --- | --- | --- | --- | --- | --- |
| CC(=O)Nc1cc(Oc2ccc(NC(=O)C(O)c3ccc(Br)cc3)cc2)ncn1 (stereo not shown) [Example 14, N-[4-(6-acetylamino-pyrimidin-4-yloxy)-phenyl]-2-(4-bromo-phenyl)-2-hydroxy-acetamide] | > 10 | > 10 | > 10 | > 10 | > 10 | 0.713 | 0.284 | > 10 | 0.089 | 0.341 | 1.24 |
| Cc1ccc(NC(=O)Nc2ccc(Oc3cc(NCCN4CCCC4)ncn3)cc2)cc1C(F)(F)F [Example 122, 1-(4-methyl-3-trifluoromethyl-phenyl)-3-{4-[6-(2-pyrrolidin-1-yl-ethylamino)-pyrimidin-4-yloxy]-phenyl}-urea] | 3.37 | 3.92 | 3.92 | 0.391 | 0.394 | 0.206 | 0.036 | 4.3 | 0.008 | 0.017 | 0.17 |
| CC(=O)Nc1cc(Oc2ccc(NC(=O)Cc3cccc(Oc4ccccc4)c3)cc2)ncn1 [Example 12, N-[4-(6-acetylamino-pyrimidin-4-yloxy)-phenyl]-2-(3-phenoxy-phenyl)-acetamide] | > 10 | > 10 | > 10 | 2.13 | 8.64 | 0.649 | 0.204 | 0.672 | 0.02 | 0.029 | 0.229 |
| Cc1ccc(NC(=O)Nc2ccc(Oc3cc(N[C@@H](C)C(=O)O)ncn3)cc2)cc1C(F)(F)F [Example 126, (6-(4-(3-(4-methyl-3-(trifluoromethyl)phenyl)ureido)phenoxy)pyrimidin-4-yl)-L-aminopropionic Acid] | > 10 | > 10 | > 10 | 1.66 | 4.68 | 0.797 | 0.153 | 6.38 | 0.14 | 0.49 | 0.41 |
| Cc1ccc(NC(=O)N[C@H]2CC[C@H](Oc3cc(NCCO)ncn3)CC2)cc1C(F)(F)F [Example 42, 1-((1R,4R)-4-((6-((2-hydroxyethyl)amino)pyrimidin-4-yl)oxy)cyclohexyl)-3-(4-methyl-3-(trifluoromethyl)phenyl)urea] | 5.5 | 5.38 | 4.11 | 5.18 | 3.91 | 0.198 | 0.274 | 3.59 | 0.094 | 0.096 | 3.77 |
